Experimental data from patent US10294202B2, “Pyrrolidinones as herbicides” (FMC Corporation, priority 2013, dated 2019).

Tests used:
[1] = test system: barnyardgrass; test: Test B flooded paddy test; assay type: in vivo, Echinochloa crus-galli; conditions: 500 g ai/ha, Flood; scale of 0 to 100 where 0 is no effect and 100 is complete control
Procedure, shortened: (§1)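 First, plants reach the 2-leaf stage; next, pots are flooded to 3 cm and compound is delivered into the water; finally, after 13 to 15 greenhouse days at constant depth, injury is graded visually from 0 to 100 against controls.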

[2] = test system: oat, wild; test: Test C pre-/postemergence herbicide test; assay type: in vivo, Avena fatua; conditions: Postemergence
Procedure, shortened: (§2)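 Response scores range from 0, meaning no effect, to 100, meaning complete control, assigned visually by comparison with controls roughly two weeks (13 to 15 days) after spraying. Applications were made preemergence to seeded loam–sand soil and postemergence to 1- to 4-leaf plants.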

[3] = test system: corn; test: Test C pre-/postemergence herbicide test; assay type: in vivo, Zea mays
Procedure, shortened: as §2

[4] = test system: morningglory; test: Test C pre-/postemergence herbicide test; assay type: in vivo, Ipomoea coccinea
Procedure, shortened: as §2

[5] = test system: sedge, umbrella; test: Test B flooded paddy test; assay type: in vivo, Cyperus difformis; conditions: 500 g ai/ha, Flood; scale of 0 to 100 where 0 is no effect and 100 is complete control
Procedure, shortened: as §1

[6] = test system: waterhemp; test: Test C pre-/postemergence herbicide test; assay type: in vivo, Amaranthus rudis
Procedure, shortened: as §2

[7] = test system: ducksalad; test: Test B flooded paddy test; assay type: in vivo, Heteranthera limosa; conditions: 500 g ai/ha, Flood; scale of 0 to 100 where 0 is no effect and 100 is complete control
Procedure, shortened: as §1

[8] = test system: soybean; test: Test C pre-/postemergence herbicide test; assay type: in vivo, Glycine max
Procedure, shortened: as §2

[9] = test system: pigweed; test: Test C pre-/postemergence herbicide test; assay type: in vivo, Amaranthus retroflexus
Procedure, shortened: as §2

[10] = test system: ragweed; test: Test C pre-/postemergence herbicide test; assay type: in vivo, Ambrosia elatior
Procedure, shortened: as §2

[11] = test system: ryegrass, Italian; test: Test C pre-/postemergence herbicide test; assay type: in vivo, Lolium multiflorum
Procedure, shortened: as §2

[12] = test system: barnyardgrass; test: Test C pre-/postemergence herbicide test; assay type: in vivo, Echinochloa crus-galli
Procedure, shortened: as §2

[13] = test system: galium; test: Test C pre-/postemergence herbicide test; assay type: in vivo, Galium aparine
Procedure, shortened: as §2

[14] = test system: wheat (winter wheat); test: Test C pre-/postemergence herbicide test; assay type: in vivo, Triticum aestivum; conditions: for Plant response rating, Wheat: Postemergence
Procedure, shortened: as §2

[15] = test system: lambsquarters; test: Test C pre-/postemergence herbicide test; assay type: in vivo, Chenopodium album
Procedure, shortened: as §2

[16] = 31 g ai/ha, scale 0 to 100 (0 no effect, 100 complete control)
[17] = 62 g ai/ha, scale 0 (no effect) to 100 (complete control)
[18] = 125 g ai/ha, scale 0 to 100 (0 no effect, 100 complete control)
[19] = 250 g ai/ha, scale 0 to 100 (0 no effect, 100 complete control)
[20] = Postemergence, 31 g ai/ha, scale 0 to 100 (0 no effect, 100 complete control)
[21] = Postemergence, 62 g ai/ha, scale 0 (no effect) to 100 (complete control)
[22] = Postemergence, 125 g ai/ha, scale 0 to 100 (0 no effect, 100 complete control)
[23] = Postemergence, 250 g ai/ha, scale 0 to 100 (0 no effect, 100 complete control)
[24] = Preemergence, 31 g ai/ha, scale 0 to 100, 0 is no effect and 100 is complete control
[25] = Preemergence, 62 g ai/ha, scale 0 to 100 (0 no effect, 100 complete control)
[26] = Preemergence, 125 g ai/ha, scale 0 to 100 (0 no effect, 100 complete control)

## O=C1NCC(c2cc(F)cc(F)c2)C1C(=O)Nc1ccc(F)cc1F (racemic) [Compound 278]
[1]
  Plant response rating, Barnyardgrass: 60
[2]; [16]
  Plant response rating, Oat, Wild: 0
[2]; [17]
  Plant response rating, Oat, Wild: 0
[2]; [18]
  Plant response rating, Oat, Wild: 0
[2]; [19]
  Plant response rating, Oat, Wild: 0
[3]; [20]
  Plant response rating, Corn: 0
[3]; [21]
  Plant response rating, Corn: 0
[3]; [22]
  Plant response rating, Corn: 0
[3]; [23]
  Plant response rating, Corn: 0
[3]; [24]
  Corn plant response rating: 0
[3]; [25]
  Corn plant response rating: 0
[3]; [26]
  Plant response rating, Corn: 0
[3]; Preemergence, 250 g ai/ha
  Plant response rating (scale of 0 to 100), Corn: 5
[4]; [20]
  Plant response rating, Morningglory: 0
[4]; [21]
  Plant response rating, Morningglory: 0
[4]; [22]
  Plant response rating, Morningglory: 45
[4]; [23]
  Plant response rating, Morningglory: 0
[4]; [24]
  Morningglory plant response rating: 0
[4]; [25]
  Morningglory plant response rating: 0
[4]; [26]
  Plant response rating, Morningglory: 0
[4]; Preemergence, 250 g ai/ha
  Plant response rating (scale of 0 to 100), Morningglory: 0
[5]
  Plant response rating, Sedge, Umbrella: 0
[6]; [20]
  Plant response rating, Waterhemp: 0
[6]; [21]
  Plant response rating, Waterhemp: 0
[6]; [22]
  Plant response rating, Waterhemp: 5
[6]; [23]
  Plant response rating, Waterhemp: 5
[6]; [24]
  Waterhemp plant response rating: 0
[6]; [25]
  Waterhemp plant response rating: 0
[6]; [26]
  Plant response rating, Waterhemp: 0
[6]; Preemergence, 250 g ai/ha
  Plant response rating (scale of 0 to 100), Waterhemp: 0
[7]
  Plant response rating, Ducksalad: 100
[8]; [20]
  Plant response rating, Soybean: 50
[8]; [21]
  Plant response rating, Soybean: 55
[8]; [22]
  Plant response rating, Soybean: 40
[8]; [23]
  Plant response rating, Soybean: 15
[8]; [24]
  Soybean plant response rating: 0
[8]; [25]
  Soybean plant response rating: 0
[8]; [26]
  Plant response rating, Soybean: 10
[8]; Preemergence, 250 g ai/ha
  Plant response rating (scale of 0 to 100), Soybean: 10
[9]; [20]
  Plant response rating, Pigweed: 0
[9]; [21]
  Plant response rating, Pigweed: 5
[9]; [22]
  Plant response rating, Pigweed: 15
[9]; [23]
  Plant response rating, Pigweed: 15
[9]; [24]
  Pigweed plant response rating: 5
[9]; [25]
  Pigweed plant response rating: 0
[9]; [26]
  Plant response rating, Pigweed: 0
[9]; Preemergence, 250 g ai/ha
  Plant response rating (scale of 0 to 100), Pigweed: 0
[10]; [20]
  Plant response rating, Ragweed: 0
[10]; [21]
  Plant response rating, Ragweed: 0
[10]; [22]
  Plant response rating, Ragweed: 10
[10]; [23]
  Plant response rating, Ragweed: 0
[10]; [24]
  Ragweed plant response rating: 0
[10]; [25]
  Ragweed plant response rating: 0
[10]; [26]
  Plant response rating, Ragweed: 0
[10]; Preemergence, 250 g ai/ha
  Plant response rating (scale of 0 to 100), Ragweed: 0
[11]; [20]
  Plant response rating, Ryegrass, Italian: 0
[11]; [21]
  Plant response rating, Ryegrass, Italian: 0
[11]; [22]
  Plant response rating, Ryegrass, Italian: 0
[11]; [23]
  Plant response rating, Ryegrass, Italian: 0
[11]; [24]
  Ryegrass, Italian plant response rating: 0
[11]; [25]
  Ryegrass, Italian plant response rating: 0
[11]; [26]
  Plant response rating, Ryegrass, Italian: 0
[11]; Preemergence, 250 g ai/ha
  Plant response rating (scale of 0 to 100), Ryegrass, Italian: 0
[12]; [20]
  Plant response rating, Barnyardgrass: 0
[12]; [21]
  Plant response rating, Barnyardgrass: 10
[12]; [22]
  Plant response rating, Barnyardgrass: 55
[12]; [23]
  Plant response rating, Barnyardgrass: 75
[12]; [24]
  Barnyardgrass plant response rating: 65
[12]; [25]
  Barnyardgrass plant response rating: 90
[12]; [26]
  Plant response rating, Barnyardgrass: 95
[12]; Preemergence, 250 g ai/ha
  Plant response rating (scale of 0 to 100; 0 is no effect, 100 is complete control), Barnyardgrass: 100
[13]; [20]
  Plant response rating, Galium: 0
[13]; [21]
  Plant response rating, Galium: 0
[13]; [22]
  Plant response rating, Galium: 5
[13]; [23]
  Plant response rating, Galium: 20
[13]; [24]
  Galium plant response rating: 0
[13]; [25]
  Galium plant response rating: 0
[13]; [26]
  Plant response rating, Galium: 0
[13]; Preemergence, 250 g ai/ha
  Plant response rating (scale of 0 to 100), Galium: 5
[14]; [16]
  Plant response rating, Wheat: 0
[14]; [17]
  Plant response rating, Wheat: 0
[14]; [18]
  Plant response rating, Wheat: 0
[14]; [19]
  Plant response rating, Wheat: 0
[14]; [24]
  Wheat plant response rating: 0
[14]; [25]
  Wheat plant response rating: 0
[14]; Preemergence, 250 g ai/ha
  Plant response rating (scale of 0 to 100), Wheat: 0
[15]; [20]
  Plant response rating, Lambsquarters: 0
[15]; [21]
  Plant response rating, Lambsquarters: 0
[15]; [22]
  Plant response rating, Lambsquarters: 20
[15]; [23]
  Plant response rating, Lambsquarters: 20
[15]; [24]
  Lambsquarters plant response rating: 0
[15]; [25]
  Lambsquarters plant response rating: 0
[15]; [26]
  Plant response rating, Lambsquarters: 0
[15]; Preemergence, 250 g ai/ha
  Plant response rating (scale of 0 to 100), Lambsquarters: 0
